# Data published in PubChem BioAssay AID248 (DTP/NCI, 2004).
# Values joined by “and” are separate entries in the source; they are usually repeats but may differ in a detail not shown here. Identical values can stand only once. Inconclusive results and toxic doses are left out.
# System: L1210 leukemia ip in BDF1 mice, survival T/C
# Experiment: NCI In Vivo Anticancer Drug Screen. Data for tumor model L1210 Leukemia (intraperitoneal) in B6D2F1 (BDF1) mice
# Conditions: endpoint: mean survival time, higher = longer survival
# Description: The antitumor activity of compounds was measured in mice bearing transplantable tumors. Survival or tumor size were measured and the results are expressed as the measurement made in the treated group (T) divided by the measurement made in the vehicle treated control group (C). The tumor model used in this assay is L1210 Leukemia (intraperitoneal) in B6D2F1 (BDF1) mice
# [1] = dose: 100.0 mg/kg/injection, schedule: Q01DX001 (ip), vehicle: saline with Tween-80
# [2] = dose: 200.0 mg/kg/injection, schedule: Q01DX001 (ip), vehicle: saline with Tween-80
# [3] = dose: 100.0 mg/kg/injection, schedule: Q04DX003 (ip), vehicle: saline
# [4] = dose: 200.0 mg/kg/injection, schedule: Q04DX003 (ip), vehicle: saline
# [5] = dose: 400.0 mg/kg/injection, schedule: Q04DX003 (ip), vehicle: saline
# [6] = dose: 100.0 mg/kg/injection, schedule: Q01DX009 (ip), vehicle: Klucel (hydroxypropylcellulose) (HPC)
# [7] = dose: 200.0 mg/kg/injection, schedule: Q01DX009 (ip), vehicle: Klucel (hydroxypropylcellulose) (HPC)
# [8] = dose: 400.0 mg/kg/injection, schedule: Q01DX009 (ip), vehicle: Klucel (hydroxypropylcellulose) (HPC)
# [9] = dose: 100.0 mg/kg/injection, schedule: Q04DX003 (ip), vehicle: Klucel (hydroxypropylcellulose) (HPC)
# [10] = dose: 200.0 mg/kg/injection, schedule: Q04DX003 (ip), vehicle: Klucel (hydroxypropylcellulose) (HPC)
# [11] = dose: 400.0 mg/kg/injection, schedule: Q04DX003 (ip), vehicle: Klucel (hydroxypropylcellulose) (HPC)
# [12] = dose: 100.0 mg/kg/injection, schedule: Q04DX002 (ip), vehicle: Klucel (hydroxypropylcellulose) (HPC)
# [13] = dose: 200.0 mg/kg/injection, schedule: Q04DX002 (ip), vehicle: Klucel (hydroxypropylcellulose) (HPC)
compound,measurement,setting,value
CSCC1OC(n2cnc3c(N)ncnc32)C(O)C1O (stereo not drawn),T/C,"dose: 50.0 mg/kg/injection, schedule: Q01DX001 (ip), vehicle: saline with Tween-80",96 % of control
same,T/C,[1],96 % of control
same,T/C,[2],96 % of control
CCOC(=O)C1C(=O)C(=O)N2CCCC12 (stereo not drawn),T/C,[3],107 % of control
same,T/C,[4],96 % of control
same,T/C,[5],98 % of control
CCCCCCCCCCCCCCCCCC(=O)N/N=C/c1ccc(Cl)cc1,T/C,[6],101 % of control and 88 % of control
same,T/C,[7],102 % of control
same,T/C,[8],98 % of control and 92 % of control
COc1ccc(OC(=O)Nc2cc(C)ccc2C)cc1,T/C,[6],91 % of control
same,T/C,[9],94 % of control
same,T/C,[7],90 % of control
same,T/C,[10],97 % of control
same,T/C,[11],108 % of control
Cc1cc(SCC(=O)c2ccc(Br)cc2)cc(C)[o+]1,T/C,"dose: 25.0 mg/kg/injection, schedule: Q01DX009 (ip), vehicle: saline",92 % of control
same,T/C,"dose: 50.0 mg/kg/injection, schedule: Q01DX009 (ip), vehicle: saline",107 % of control
same,T/C,"dose: 100.0 mg/kg/injection, schedule: Q01DX009 (ip), vehicle: saline",100 % of control
same,T/C,[3],97 % of control
same,T/C,[4],92 % of control
O=C(Nc1cccc(O)c1)c1ccccc1Cl,T/C,[6],96 % of control
same,T/C,[7],97 % of control
same,T/C,[8],92 % of control
O=C(Nc1ccccc1)C(Br)c1ccccc1 (stereo not drawn),T/C,[3],91 % of control
same,T/C,[4],90 % of control
O=C(O)c1cc2ccc3ccccc3c2oc1=O,T/C,"dose: 100.0 mg/kg/injection, schedule: Q01DX001 (ip), vehicle: carboxymethylcellulose (CMC)",87 % of control
same,T/C,"dose: 200.0 mg/kg/injection, schedule: Q01DX001 (ip), vehicle: carboxymethylcellulose (CMC)",92 % of control
same,T/C,"dose: 400.0 mg/kg/injection, schedule: Q01DX001 (ip), vehicle: carboxymethylcellulose (CMC)",92 % of control
CCC(NC(C)=O)C(=O)O (stereo not drawn),T/C,"dose: 100.0 mg/kg/injection, schedule: Q04DX002 (ip), vehicle: saline",101 % of control
same,T/C,[3],104 % of control
same,T/C,"dose: 200.0 mg/kg/injection, schedule: Q04DX002 (ip), vehicle: saline",90 % of control
same,T/C,[4],96 % of control
same,T/C,"dose: 400.0 mg/kg/injection, schedule: Q04DX002 (ip), vehicle: saline",116 % of control
same,T/C,[5],95 % of control
C=C1CC(c2ccc(S(=O)(=O)N3CCCC3)cc2)OC1=O (stereo not drawn),T/C,[12],95 % of control
same,T/C,[13],98 % of control
COc1cc2c(cc1OC)C(OC)N(C)c1c-2ccc2cc3c(cc12)OCO3 (stereo not drawn),T/C,"dose: 5.0 mg/kg/injection, schedule: Q01DX009 (ip), vehicle: Klucel (hydroxypropylcellulose) (HPC)",106 % of control
same,T/C,"dose: 10.0 mg/kg/injection, schedule: Q01DX009 (ip), vehicle: Klucel (hydroxypropylcellulose) (HPC)",106 % of control
same,T/C,"dose: 10.0 mg/kg/injection, schedule: Q01DX009 (ip), vehicle: saline",123 % of control
same,T/C,"dose: 20.0 mg/kg/injection, schedule: Q01DX009 (ip), vehicle: Klucel (hydroxypropylcellulose) (HPC)",95 % of control
same,T/C,"dose: 20.0 mg/kg/injection, schedule: Q01DX009 (ip), vehicle: steriod suspending solution",163 % of control
same,T/C,"dose: 20.0 mg/kg/injection, schedule: Q04DX003 (ip), vehicle: saline",123 % of control
same,T/C,"dose: 40.0 mg/kg/injection, schedule: Q01DX009 (ip), vehicle: Klucel (hydroxypropylcellulose) (HPC)",113 % of control
same,T/C,"dose: 40.0 mg/kg/injection, schedule: Q04DX003 (ip), vehicle: saline",121 % of control
same,T/C,"dose: 80.0 mg/kg/injection, schedule: Q01DX009 (ip), vehicle: Klucel (hydroxypropylcellulose) (HPC)",111 % of control
same,T/C,"dose: 80.0 mg/kg/injection, schedule: Q04DX003 (ip), vehicle: saline",124 % of control
same,T/C,[12],118 % of control and 119 % of control
same,T/C,[9],116 % of control
same,T/C,"dose: 160.0 mg/kg/injection, schedule: Q01DX009 (ip), vehicle: Klucel (hydroxypropylcellulose) (HPC)",109 % of control
same,T/C,"dose: 160.0 mg/kg/injection, schedule: Q04DX003 (ip), vehicle: saline",112 % of control
same,T/C,[7],122 % of control
same,T/C,[13],123 % of control
same,T/C,[10],111 % of control
same,T/C,"dose: 320.0 mg/kg/injection, schedule: Q01DX009 (ip), vehicle: Klucel (hydroxypropylcellulose) (HPC)",111 % of control
same,T/C,[8],124 % of control
same,T/C,"dose: 400.0 mg/kg/injection, schedule: Q04DX002 (ip), vehicle: Klucel (hydroxypropylcellulose) (HPC)",152 % of control
same,T/C,[11],106 % of control
CCOC(=O)C(/C=N/C(N)=O)=C(\C)O,T/C,[6],105 % of control
same,T/C,[9],102 % of control
same,T/C,[7],95 % of control
same,T/C,[10],101 % of control
same,T/C,[8],106 % of control
same,T/C,[11],92 % of control
Cc1nc(C#N)c(C#N)nc1-c1ccccc1,T/C,"dose: 100.0 mg/kg/injection, schedule: Q04DX002 (ip), vehicle: saline with Tween-80",95 % of control
same,T/C,"dose: 200.0 mg/kg/injection, schedule: Q04DX002 (ip), vehicle: saline with Tween-80",95 % of control
same,T/C,"dose: 400.0 mg/kg/injection, schedule: Q04DX002 (ip), vehicle: saline with Tween-80",95 % of control
O=C(Nc1cccc(C2=NCCN2)c1)c1cc(Cl)cc(C(=O)Nc2cccc(C3=NCCN3)c2)c1,T/C,"dose: 7.0 mg/kg/injection, schedule: Q01DX Z (ip), vehicle: methylcellulose (MC)",92 % of control
same,T/C,"dose: 11.0 mg/kg/injection, schedule: Q01DX Z (ip), vehicle: methylcellulose (MC)",100 % of control
same,T/C,"dose: 16.0 mg/kg/injection, schedule: Q01DX Z (ip), vehicle: methylcellulose (MC)",87 % of control
same,T/C,"dose: 25.0 mg/kg/injection, schedule: Q01DX Z (ip), vehicle: methylcellulose (MC)",97 % of control
Cc1ccc2[nH]c(=S)[nH]c2c1,T/C,[1],101 % of control
same,T/C,[2],106 % of control
CCN(CC)c1cc2c(cc1Br)-c1ccccc1C2=O,T/C,"dose: 100.0 mg/kg/injection, schedule: Q04DX003 (ip), vehicle: saline with Tween-80",101 % of control
same,T/C,"dose: 200.0 mg/kg/injection, schedule: Q04DX003 (ip), vehicle: saline with Tween-80",104 % of control
same,T/C,"dose: 400.0 mg/kg/injection, schedule: Q04DX003 (ip), vehicle: saline with Tween-80",106 % of control
OC1OC(CN(CCCl)c2ccccc2)C(O)C(O)C1O (stereo not drawn),T/C,"dose: 18.0 mg/kg/injection, schedule: Q01DX Z (ip), vehicle: methylcellulose (MC)",109 % of control
same,T/C,"dose: 27.0 mg/kg/injection, schedule: Q01DX Z (ip), vehicle: methylcellulose (MC)",117 % of control
same,T/C,"dose: 60.0 mg/kg/injection, schedule: Q01DX Z (ip), vehicle: methylcellulose (MC)",117 % of control
CCCCCCCCN(C(=S)NC(=O)c1ccccc1)c1ccccc1,T/C,[9],93 % of control
same,T/C,[10],89 % of control
same,T/C,[11],91 % of control
N#CCc1[nH]cnc1C#N,T/C,"dose: 100.0 mg/kg/injection, schedule: Q04DX003 (ip), vehicle: water",100 % of control and 111 % of control and 115 % of control
same,T/C,"dose: 200.0 mg/kg/injection, schedule: Q04DX003 (ip), vehicle: water",95 % of control and 115 % of control
same,T/C,"dose: 300.0 mg/kg/injection, schedule: Q04DX003 (ip), vehicle: water",113 % of control
same,T/C,"dose: 400.0 mg/kg/injection, schedule: Q04DX003 (ip), vehicle: water",100 % of control (2×) and 122 % of control
COC1OC(CI)C(OC(C)=O)C(OC(C)=O)C1OC(C)=O (stereo not drawn),T/C,"dose: 50.0 mg/kg/injection, schedule: Q04DX002 (ip), vehicle: Klucel (hydroxypropylcellulose) (HPC)",94 % of control
same,T/C,[12],94 % of control
same,T/C,[13],97 % of control
O=[N+]([O-])c1ccc(OCCC[P+](c2ccccc2)(c2ccccc2)c2ccccc2)c(Cl)c1,T/C,"dose: 3.12 mg/kg/injection, schedule: Q01DX009 (ip), vehicle: saline",98 % of control
same,T/C,"dose: 6.25 mg/kg/injection, schedule: Q01DX009 (ip), vehicle: saline",95 % of control
same,T/C,"dose: 6.25 mg/kg/injection, schedule: Q04DX003 (ip), vehicle: saline",94 % of control
same,T/C,"dose: 12.5 mg/kg/injection, schedule: Q01DX009 (ip), vehicle: saline",86 % of control and 87 % of control
same,T/C,"dose: 12.5 mg/kg/injection, schedule: Q04DX003 (ip), vehicle: saline",92 % of control
same,T/C,"dose: 25.0 mg/kg/injection, schedule: Q04DX003 (ip), vehicle: saline",90 % of control
